Consider 15 compounds from patent publication US20230192705A1, “SHP2 INHIBITORS, COMPOSITIONS AND USES THEREOF” (Betta Pharmaceuticals Co., Ltd, priority 2020, published 2023).

The subject of one assay is leukemia MV-4-11 cell. The assay can be described thus: Cell proliferation assay (CellTiter-Glo), MV-4-11. Format: cell-based. As to conditions: Homo sapiens, MV4-11, MV-4-11, 120 hrs, CTG, read-out: Compound on MV-4-11 cell IC50. The protocol:
(§1) The effects of the compounds on the proliferation of leukemia MV-4-11 cell and lung cancer NCI-H358 cell were evaluated by in vitro cell test. The assay used in this study was the CELL TITER-GLO (CTG) luminescence assay, which can detect the number of living cells by quantitative determination of ATP. Because ATP is involved in a variety of enzymatic reactions in vivo and is an indicator of the metabolism of living cells, its content can directly reflects the number and state of cells. During the experiment, Celltiter-Glo™ reagent was added to the cell culture medium to measure the luminescence value. The luminescence value was proportional to the amount of ATP, which in turn was positively correlated with the number of living cells. Therefore, ATP content can be used to detect cell viability.
A bottle of MV-4-11 cells in logarithmic growth phase was taken, the cells were collected, centrifuged, resuspend, counted, and then inoculated into 96-well Microplate (Corning #3917), with 4000 cells inoculated in each well. The plates were placed in an incubator at 37° C. and 5% CO2 for 24 hrs culture, and the compounds of the invention were added for conducting.
(§2) An appropriate amount of the compound of the invention was taken for cell treatment, and the final concentration of the compound from high to low was 1000 nM, 333.3 nM, 111.1 nM, 37.04 nM, 12.35 nM, 4.115 nM, 1.372 nm, 0.4572 nM, 0.1524 nM, 0 nM, respectively. The orifice plate was cultured in an incubator at 37° C. and 5% CO2. Only adding medium without adding cell hole was set as blank group. Compound concentration of 0 nM group was zero control group.
After cultured for 120 hrs, MV-4-11 cells were added with 50 μL CellTiter-Glo® Luminescent cell viability assay solution in each well, gently shaken for 2 mins, and incubated at room temperature for 10 mins. The detection values of each well were read on the multi-functional microplate reader.
(§3) The inhibition rate is calculated according to the luminous value reading,
(§4) Inhibition rate %=(1−(administration group value−blank group value)/(control group value−blank group value)*100
(§5) The log (inhibitor) vs. response variable slope of GraphPad Prism was used to fit the dose-response curve and calculate the IC50 of compounds inhibiting cell proliferation.

Assay [1] has as its system lung cancer NCI-H358 cell. The assay can be described thus: Cell proliferation assay (CellTiter-Glo), NCI-H358. The format is cell-based. To be noted: Homo sapiens, NCI-H358, 96 hrs, CTG, read-out: Compound on NCI-H358 cell IC50. The protocol:
as §1
A bottle of NCI-H358 cells in logarithmic growth phase was taken, the cells were digested and resuspend, counted, and then the cell density was adjusted. After that, the cells were inoculated into a 96-well Ultra-Low Attachment Microplate (Corning #3474), 2000 cells were inoculated in each well, and the well plate was placed in an incubator at 37° C. and 5% CO2, and the compounds of the invention were added for conducting.
as §2
NCI-H358 cells were cultured for 96 hrs, then 50 μL CellTiter-Glo® Luminescent cell viability assay solution was added to each well, and the cells were gently shaken for 2 mins, and incubated at room temperature for 10 mins. The cell reaction system was transferred to 96-well Microplate (Corning #3917). The detection values of each well were read on the multi-functional microplate reader.
as §3, §4, §5

In the next assay the target is T1, SHP2 (Homo sapiens, UniProt Q06124).
T1 sequence (Q06124 1-593): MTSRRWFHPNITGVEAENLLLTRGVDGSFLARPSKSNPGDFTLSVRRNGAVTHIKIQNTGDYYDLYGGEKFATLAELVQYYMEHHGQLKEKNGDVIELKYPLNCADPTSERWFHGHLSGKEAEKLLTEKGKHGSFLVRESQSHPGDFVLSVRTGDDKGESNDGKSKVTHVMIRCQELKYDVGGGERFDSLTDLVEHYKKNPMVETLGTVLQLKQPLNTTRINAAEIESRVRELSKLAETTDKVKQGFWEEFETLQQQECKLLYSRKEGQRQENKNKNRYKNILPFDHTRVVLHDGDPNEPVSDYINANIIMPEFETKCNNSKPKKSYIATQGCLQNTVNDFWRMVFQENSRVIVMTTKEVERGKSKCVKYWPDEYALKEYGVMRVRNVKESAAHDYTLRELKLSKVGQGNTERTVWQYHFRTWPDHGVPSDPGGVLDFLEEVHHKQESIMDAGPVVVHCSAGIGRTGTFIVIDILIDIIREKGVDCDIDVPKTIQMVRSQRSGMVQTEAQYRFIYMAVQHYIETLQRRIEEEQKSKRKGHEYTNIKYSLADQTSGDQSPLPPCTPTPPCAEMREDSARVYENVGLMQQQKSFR
The assay can be described thus: SHP2 allosteric inhibitor enzyme activity assay (DiFMUP fluorescence). The format is biochemical. In short, it runs like this:
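SHP2 activated by 0.5 μM IRS1_pY1172(dPEG8)pY1222 peptide, 0.2 ng enzyme per well, 1 h at room temperature with compound (1 μM top, 3-fold series), then DiFMUP substrate 1 h. Buffer: 60 mM HEPES, 75 mM NaCl, 75 mM KCl, 0.05% BRIJ-35, 1 mM EDTA, 5 mM DTT. Fluorescence ex 340/em 450 nm; IC50 by variable-slope fit.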

SMILES strings stand for the structures. Where two headings read alike, the source gives them in different places. Bounds are passed on as bounds.

The term IC50 denotes the point on the concentration scale where inhibition reaches its midpoint. Consider `N[C@@H]1c2ccccc2CC12CCN(c1nn3cc(C4CC4)nc3s1)CC2` [Comparative compound 2, reference compound], for which the concentration for half-maximal inhibition (IC50) in the assay with leukemia MV-4-11 cell (numeric values) was found to be 454 nM; in assay [1] (numeric values), 1810 nM.

As for `N[C@@H]1c2ccccc2CC12CCN(c1nc3[nH]nc(C4(c5cccc(Cl)c5)CC4)c3c(=O)[nH]1)CC2` [Example 4, (S)-6-(1-amino-1,3-dihydrospiro[indene-2,4′-piperidin]-1′-yl)-3-(1-(3-chlorophenyl)cyclopropyl)-1,5-dihydro-4H-pyrazolo[3,4-d]pyrimidin-4-one], the IC50 (in the assay with leukemia MV-4-11 cell (class symbols); against SHP2 (class symbols); in assay [1] (class symbols)) was at most 20 nM throughout.

Take `Cc1cccc(C2(c3n[nH]c4nc(N5CCC6(CC5)Cc5ccccc5[C@H]6N)[nH]c(=O)c34)CC2)c1` [Example 10, (S)-6-(1-amino-1,3-dihydrospiro[indene-2,4′-piperidin]-1′-yl)-3-(1-(m-tolyl)cyclopropyl)-1,5-dihydro-4H-pyrazolo[3,4-d]pyrimidin-4-one]: the IC50 with leukemia MV-4-11 cell (class symbols) is at most 20 nM; against SHP2 (numeric values), 0.9 nM; in assay [1] (class symbols) it was at most 20 nM.

Take `COc1ccccc1C1(c2n[nH]c3nc(N4CCC5(CC4)Cc4ccccc4[C@H]5N)[nH]c(=O)c23)CC1` [Example 17, (S)-6-(1-amino-1,3-dihydrospiro[indene-2,4′-piperidin]-1′-yl)-3-(1-(2-methoxyphenyl)cyclopropyl)-1,5-dihydro-4H-pyrazolo[3,4-d]pyrimidin-4-one]: the IC50 is 20 to 60 nM in the assay on leukemia MV-4-11 cell (class symbols), at most 20 nM against SHP2 (class symbols) and 20 to 60 nM in assay [1] (class symbols).

For `COc1cccc(C2(c3n[nH]c4nc(N5CCC6(CC5)Cc5ccccc5[C@H]6N)[nH]c(=O)c34)CC2)c1` [Example 18, (S)-6-(1-amino-1,3-dihydrospiro[indene-2,4′-piperidin]-1′-yl)-3-(1-(3-methoxyphenyl)cyclopropyl)-1,5-dihydro-4H-pyrazolo[3,4-d]pyrimidin-4-one], the IC50 (in the assay with leukemia MV-4-11 cell (class symbols); against SHP2 (class symbols); in assay [1] (class symbols)) was at most 20 nM each time.

For `N[C@@H]1c2ccccc2CC12CCN(c1nc3[nH]nc(C4=CCOc5cc(F)ccc54)c3c(=O)[nH]1)CC2` [Example 115, (S)-6-(1-amino-1,3-dihydrospiro[indene-2,4′-piperidin]-1′-yl)-3-(7-fluoro-2H-chromen-4-yl)-1,5-dihydro-4H-pyrazolo[3,4-d]pyrimidin-4-one], the results for the IC50 (in the assay with leukemia MV-4-11 cell (numeric values); against SHP2 (class symbols); in assay [1] (numeric values)) were 1.4 nM, at most 20 nM and 1.2 nM, respectively.

For `N#Cc1ccc2c(c1)CCC=C2c1n[nH]c2nc(N3CCC4(CC3)Cc3ccccc3[C@H]4N)[nH]c(=O)c12` [Example 122, (S)-5-(6-(1-amino-1,3-dihydrospiro[indene-2,4′-piperidin]-1′-yl)-4-oxo-4,5-dihydro-1H-pyrazolo[3,4-d]pyrimidin-3-yl)-7,8-dihydronaphthalene-2-carbonitrile], the values for the half-maximal inhibitory concentration (IC50) (in the assay on leukemia MV-4-11 cell (numeric values); against SHP2 (numeric values); in assay [1] (numeric values)) were 2.1 nM, 1.1 nM and 1.1 nM, respectively.

Regarding `N[C@@H]1c2ccccc2CC12CCN(c1nc3[nH]nc(C4=CCOc5c(F)cccc54)c3c(=O)[nH]1)CC2` [Example 124], the IC50 with leukemia MV-4-11 cell (numeric values) stood at 1.7 nM; at SHP2 (numeric values), 0.48 nM; in assay [1] (numeric values), 1.6 nM.

For `N[C@@H]1c2ccccc2CC12CCN(c1nc3[nH]nc(C4=CCCCc5ccccc54)c3c(=O)[nH]1)CC2` [Example 125], the 50% inhibitory concentration (IC50) came out at 1.9 nM with leukemia MV-4-11 cell (numeric values), 1.6 nM on SHP2 (numeric values) and 1.1 nM in assay [1] (numeric values).

Regarding `N[C@@H]1c2ccccc2CC12CCN(c1nc3[nH]nc(C4=CCCc5nc(Cl)ccc54)c3c(=O)[nH]1)CC2` [Example 139, (S)-6-(1-amino-1,3-dihydrospiro[indene-2,4′-piperidin]-1′-yl)-3-(2-chloro-7,8-dihydroquinolin-5-yl)-1,5-dihydro-4H-pyrazolo[3,4-d]pyrimidin-4-one], the results for the IC50 (in the assay with leukemia MV-4-11 cell (numeric values); at SHP2 (numeric values); in assay [1] (numeric values)) were 2.8 nM, 1.6 nM and 2 nM, respectively.

For the compound `CC1(C)C=C(c2n[nH]c3nc(N4CCC5(CC4)Cc4ccccc4[C@H]5N)[nH]c(=O)c23)c2ccc(C(F)(F)F)nc2C1` [Example 144, (S)-6-(1-amino-1,3-dihydrospiro[indene-2,4′-piperidin]-1′-yl)-3-(7,7-dimethyl-2-(trifluoromethyl)-7,8-dihydroquinolin-5-yl)-1,5-dihydro-4H-pyrazolo[3,4-d]pyrimidin-4-one], the IC50 in the assay on leukemia MV-4-11 cell (class symbols) was 20 to 60 nM; against SHP2 (class symbols), at most 20 nM; in assay [1] (class symbols), 20 to 60 nM.

In the case of `C#Cc1cccc(C2(c3n[nH]c4nc(N5CCC6(CC5)Cc5ccccc5[C@H]6N)[nH]c(=O)c34)CC2)c1` [Example 222, (S)-6-(1-amino-1,3-dihydrospiro[indene-2,4′-piperidin]-1′-yl)-3-(1-(3-ethynylphenyl)cyclopropyl)-1,5-dihydro-4H-pyrazolo[3,4-d]pyrimidin-4-one], the 50% inhibitory concentration (IC50) (in the assay on leukemia MV-4-11 cell (class symbols); on SHP2 (class symbols); in assay [1] (class symbols)) was at most 20 nM throughout.

In the case of `CC(=O)c1cccc(C2(c3n[nH]c4nc(N5CCC6(CC5)Cc5ccccc5[C@H]6N)[nH]c(=O)c34)CC2)c1` [Example 223, (S)-3-(1-(3-acetylphenyl)cyclopropyl)-6-(1-amino-1,3-dihydrospiro[indene-2,4′-piperidin]-1′-yl)-1,5-dihydro-4H-pyrazolo[3,4-d]pyrimidin-4-one], the IC50 in the assay on leukemia MV-4-11 cell (numeric values) is 2.8 nM; at SHP2 (class symbols), at most 20 nM; in assay [1] (numeric values), 11 nM.

Consider `C[C@@H]1CCC2(CCN(c3nc4[nH]nc(C5(c6ccccc6)CC5)c4c(=O)[nH]3)CC2)[C@@H]1N` [Example 320, 6-((1R,2R)-1-amino-2-methyl-8-azaspiro[4.5]decan-8-yl)-3-(1-phenylcyclopropyl)-1,5-dihydro-4H-pyrazolo[3,4-d]pyrimidin-4-one], for which the 50% inhibitory concentration (IC50) against SHP2 (class symbols) is 20 to 60 nM.

`N[C@@H]1CCCC12CCN(c1nc3[nH]nc(C4(c5ccccc5)CC4)c3c(=O)[nH]1)CC2` [Example 321, (R)-6-(1-amino-8-azaspiro[4.5]decan-8-yl)-3-(1-phenylcyclopropyl)-1,5-dihydro-4H-pyrazolo[3,4-d]pyrimidin-4-one]: the IC50 against SHP2 (class symbols) was in the range of 20 to 60 nM.
